Assay results published in patent US20110190249A1, “THERAPEUTIC METHODS AND USES OF SAPOGENINS AND THEIR DERIVATIVES” (PHYTOPHARM PLC, priority 2002, published 2011).

Assays:
[1] = tested on: rat primary cortical neurones; test: Reversal of glutamate-induced neurodegeneration (LDH), treatment after glutamate exposure; assay type: cell-based; settings: LDH after 24 h, control = 100
Method: Neuronal cell survival was evaluated by measuring lactate dehydrogenase (LDH) activity released in the media 24 h after test compound treatment or glutamate+test compound exposure, using the CytoTox 96 non-radioactive kit and quantitated by measuring wavelength absorbance at 450 nm.
As above mentioned, exposure of rat primary cortical cultures to glutamate (100 μM; 10 min) caused an increase in lactate dehydrogenase (LDH) activity measured after 24 h, indicating a significant neurodegeneration.

[2] = tested on: rat primary cortical neurones; test: Neurite outgrowth in rat primary cortical neurones; assay type: cell-based; settings: for Number of neurones displaying neurites, Mean ± s.e.m (%): control 47 ± 2; for Neurite length measured using optical micrometry, Mean ± s.e.m (%): control 100 ± 4
Source text: Neurodegenerative disorders are characterised by a progressive loss of neurones and degradation of neuronal processes (neurites). Agents that induce neurite outgrowth may promote the formation of new connections between neurones and ameliorate the symptoms of neurodegenerative conditions (Katzman et al, Faseb J., 5, 278-286, 1991).

[3] = tested on: rat mesencephalic dopaminergic neurones; test: Pre-treatment of dopaminergic neurones before MPP+ exposure (neuronal survival); assay type: cell-based; settings: pre-treatment 30 nM; MPP+ 2 μM; MPP+ alone 55 ± 3
Source text: Smilagenin and sarsasapogenin prevent the neurodegeneration caused by exposure to the neurotoxin, 1-methyl-4-phenylpyridinium (MPP^+) in rat mesencephalic dopaminergic neurones; a model of Parkinson's disease in vitro.
Glial cell line-derived neurotrophic factor (GDNF) and brain-derived neurotrophic factor (BDNF), molecules that are involved in neuronal growth, were used as positive controls.

[4] = tested on: rat mesencephalic dopaminergic neurones; test: Treatment of dopaminergic neurones after MPP+ exposure (survival, neurites); assay type: cell-based; settings: MPP+ 2 μM
Source text: Smilagenin and sarsasapogenin also reverse the neurodegeneration caused by exposure to the neurotoxin 1-methyl-4-phenylpyridinium (MPP^+) in rat mesencephalic dopaminergic neurones; a model of Parkinson's disease in vitro.
Glial cell line-derived neurotrophic factor (GDNF) and brain-derived neurotrophic factor (BDNF), molecules that are involved in neuronal growth, and 17β-oestradiol were used as positive controls. Treatment with smilagenin and sarsasapogenin produced a significant increase in the neuronal survival compared to neurones exposed to MPP^+ alone (Table 8).
Exposure to MPP^+ caused not only a significant decrease in dopaminergic number but also in the percentage of neurites.

[5] = tested on: rat primary spinal motor neurones; test: Glutamate-induced neurodegeneration in spinal motor neurones (LDH); assay type: cell-based; settings: control 100 ± 1
Method: The objective of this study was to examine the effects of sarsasapogenin and smilagenin on the survival of rat primary spinal motor neurones exposed to glutamate, which is known to induce neurodegeneration in this model of motor neurodegeneration.
Rat motor neurones were prepared according to the method described by (Martinou et al, Neuron, 8, 737-744, 1992). On day 10, medium was removed and the cultures were exposed to glutamate (4 microM) for 10 min at 37° C. in defined medium. After the glutamate exposure, cultures were washed with Dulbecco modified Eagle medium at 37° C. then placed in fresh culture medium containing test compounds. After 48 h, the extent of spinal motor neurone degeneration was determined by measuring the amount of lactate dehydrogenase (LDH) released into the culture medium as above.

aged Sprague-Dawley rats = test: Y-maze learning and memory test in aged rats; assay type: in vivo, rat; settings: 18 mg kg−1 day−1 oral in food, 3 months
Method: (§1) Aged Sprague-Dawley rats aged were divided into different groups, one control and groups treated for 2-3 months with either sarsasapogenin, episarsasapogenin cathylate or smilagenin (18 mg kg^−1 day^−1, n=10). A control group (n=14) of untreated young rats was also included in the study. The daily dose of drug was mixed in a minimum amount of food and was administered every morning separately to each rat.
A Y-maze apparatus was used for the learning and memory test. On the floor of each arm of the Y-maze is an array of copper rods to which electric current is applied whenever needed, with adjustable voltage. Each arm is 45 cm long and has a 15 W lamp at the end, which is turned on when needed. After 3 months drug administration, each rat was trained for 7 consecutive days, as follows. For each training session, the rat was put into one arm of the Y-maze, after two minutes rest, an electrical current was applied to the copper rods and the lamp of the clockwise arm was illuminated to indicate the non-stimulation area. If the rat went into that arm, one correct response was recorded, otherwise, one wrong response was recorded: This stimulation-response test was repeated 20 times each day, with a pause of 5 sec between each two consecutive tests. The number of correct responses following the twenty tests on the seventh day was used to express learning ability, (the higher the number the better the learning ability). The rats were then left resting for 30 days and the procedure was repeated once more. The number of correct responses of the 20 tests after the 30 day rest period was used to represent the memory ability

[6] = tested on: muscarinic acetylcholine receptor; test: Brain muscarinic acetylcholine receptor density in aged rats (dual-site competitive ligand binding); assay type: in vivo, rat; settings: 18 mg kg−1 day−1 oral, 2-3 months
Method: as §1
Muscarinic acetylcholine receptor density in the brain was measured. Tissue was prepared as follows: brains were removed quickly after decapitation, frozen in dry ice, and transferred to a freezer. The brains were homogenised and the pellet was finally suspended in buffer.
The dual-site competitive ligand binding assay was used to measure muscarinic acetylcholine receptor density.

dopamine (D) 2 receptor = test: Dopamine D2 receptor density in aged rats; assay type: in vivo, rat; settings: aged rats treated 3 months; aged untreated 153.8±40.5, young 200.6±50.9
Method: as §1
By contrast, smilagenin and sarsasapogenin treatment in aged rats for 3 months restored the D1 and D2 receptor density (smilagenin 177±10.9; 217±45.7 fmol/mg protein; sarsasapogenin 172.0±44.0; 206.4±60.5 respectively).

BDNF = BDNF levels in aged rats; assay type: in vivo, rat; settings: aged rats treated 3 months; aged untreated 1.205±0.219, young 1.647±0.277
Method: as §1

SOD-1 transgenic mice = test: Survival and behaviour of SOD-1 mice (ALS model); assay type: in vivo; settings: SOD mouse
Source text: Amyotrophic lateral sclerosis (ALS) is a progressive fatal neurodegenerative disorder that causes motor neurone degeneration, […], paralysis and death. The cause of this disease is heterogeneous: mutations in the Cu/Zn superoxide dismutase (SOD-1) gene is responsible for some forms of human ALS. Animal models of this disease include the SOD-1 transgenic mice over-expressing SOD-1 gene and the progressive motor neuropathy (pmn, a model of Charcot-Marie-Tooth) mice.

With C[C@@H]1CC[C@@]2(OC1)O[C@H]1C[C@H]3[C@@H]4CC[C@@H]5C[C@@H](O)CC[C@]5(C)[C@H]4CC[C@]3(C)[C@H]1[C@@H]2C [smilagenin] the “Cortical neurones previously exposed to glutamate, Mean ± s.e.m (%)” value ([1]; 3 nM after glutamate 100 μM 10 min) was 109 ± 6%, the “Cortical neurones previously exposed to glutamate, Mean ± s.e.m (%)” value ([1]; 30 nM after glutamate 100 μM 10 min) was 104 ± 1% and the “Number of neurones displaying neurites, Mean ± s.e.m (%)” value (shortened to “Number … (%)”) ([2]; 0.3 pM) was 63 ± 2%. The “Neurite length measured using optical micrometry, Mean ± s.e.m (%)” value (from here on “Neurite length measured … (%)”) ([2]; 0.3 pM) was 159 ± 5%, the “Number … (%)” value ([2]; 3 pM) was 63 ± 2% and the “Neurite length measured … (%)” value ([2]; 3 pM) was 190 ± 8%. The “Number … (%)” value ([2]; 30 pM) was 66 ± 2%, the “Neurite length measured … (%)” value ([2]; 30 pM) was 204 ± 6% and the “Dopaminergic neurones after MPP+ exposure (survival), Mean ± s.e.m (%)” value [3] was 98 ± 4%. For the same compound, the “Percentage of neurites in dopaminergic neurones after MPP+ exposure, Mean ± s.e.m (%)” value ([4]; 0.03 nM, control 41 ± 4, MPP+ alone 27 ± 5) was 41 ± 4%, the “Dopaminergic neurones after MPP+ exposure (survival), Mean ± s.e.m (%)” value ([4]; treatment 0.03 nM, MPP+ alone 76 ± 4) was 111 ± 6% and the “Glutamate-induced neurodegeneration in spinal motor neurones, Mean ± s.e.m (%)” value (“Glutamate-induced neurodegeneration … (%)” below) ([5]; 0.03 nM for 48 h after glutamate 4 microM 10 min) was 128 ± 4%. The “Glutamate-induced neurodegeneration … (%)” value ([5]; 3 nM for 48 h after glutamate 4 microM 10 min) was 154 ± 1%, the “Glutamate-induced neurodegeneration … (%)” value ([5]; 300 nM for 48 h after glutamate 4 microM 10 min) was 144 ± 4% and the “Learning and memory ability (Y-maze)” value (aged Sprague-Dawley rats) was “restored the learning and memory ability”. The “Muscarinic acetylcholine receptor density in brain” value [6] was “significantly restored”, the D2 receptor density (dopamine (D) 2 receptor) was 217±45.7 fmol/mg protein and the BDNF levels (BDNF) was 1.342±0.07 ng/g tissue. For the same compound, the Behavioural deficits (SOD-1 transgenic mice; oral administration) was “improve the behavioural deficits” and the “Lifespan (survival)” value (SOD-1 transgenic mice; oral administration (FIG. 5)) was “increase the lifespan”.
